Results as given in US20250282819A1, “MITOCHONDRIA-[…] PEPTIDE THAT CAN BE […] DELIVERED AT NANOMOLAR CONCENTRATION, AND USE THEREOF” (CAMP THERAPEUTICS INC., priority 2021, published 2025).
Where a SMILES comes first, the peptide text is derived from it. [ ]: non-standard residue; d: D form. Cha = N[C@@H](CC1CCCCC1)C(=O)O

Columns and labels:
HeLa cells [1] = settings: observed for 4 hours
HeLa cells [2] = settings: EC50 concentration 3 hours, 0.5 mM H2O2
Description: Subsequently, after treatment with 0.5 mM of H2O2, the fluorescence was detected and imaged by confocal microscopy. The fluorescence intensity of the cells was calculated with an image analysis program (ZEN blue).
Then, the cells were stained with 2′,7′-dichlorofluorescin diacetate (H2DCFDA; Sigma, 287810, USA; 25 μM, 30 min) and washed twice with PBS. The cells were treated with 500 μM H2O2 in HBSS and incubated for an additional 10 minutes. DCF signal of the cells was detected by confocal microscope and an image thereof was taken. Green signal intensity of each image was calculated using ZEN blue software.

HeLa cells [3] = assay: Preferential binding to CCCP-damaged mitochondria, confocal microscopy; type: cell-based; settings: 100 nM 3 hours, 20 μM CCCP
Description: To damage mitochondria, treatment with carbonyl cyanide m-chlorophenyl hydrazone (CCCP) at a concentration of 20 μM was performed for 30 minutes.
For microscopic observation, HeLa cells were cultured in glass-bottom dishes (SPL, 200350, Korea). The cells were then treated with peptides for 3 hours and stained with MitoTracker™ (Thermo Fisher Scientific, A1372, USA; 100 nM, 1 hr), nonyl acridine orange (NAO; Thermo Fisher Scientific, A1372; 100 nM, 1 hr), Hoechst 33342 (1 g/mL, 20 min), CellLight™ early endosomes-GFP (Thermo Fisher Scientific, C10586; 2 L/10,000 cells, 16 hr), and/or LysoTracker™ (Thermo Fisher Scientific, L7525; 50 nM, 30 min). The cells were then rinsed with PBS and HBSS was added thereto. Images of the stained cells were obtained using a microscope (Zeiss LSM 880 and ELYRA PS.1). To generate ultra-high resolution images, a structured illumination process was performed with ZEN Black software. Pearson r values were calculated by using ImageJ software.

HeLa cells [4] = assay: ATP levels in damaged cells pretreated with peptide; type: cell-based; settings: HeLa cells pretreated 3 hours; H2O2, antimycin A, or CCCP
Description: The relative ATP levels of cells were compared by fluorescence intensity according to the method described in Experimental Example 8, and mitochondrial damage was induced by treatment with two different mitochondrial damaging agents (1 μM of antimycin A or 1 mM of H2O2).
Cellular ATP levels were assessed using an ATP detection kit (Abcam, ab113849, USA) according to the manufacturer's instructions. Fluorescence luminescence was measured with a microplate reader (Promega, Glomax 96 microplate luminometer, USA).

HeLa cells [5] = assay: Co-localization with Drp1-eGFP; type: cell-based; settings: HeLa cells transfected with Drp1-eGFP
Description: Wild-type Drp1 cDNA (kindly provided by Dr. Sunyong Chung, Ajou University School of Medicine) was amplified by polymerase chain reaction and inserted into the N-terminus of the eGFP gene in the pcDNA3.1-plasmid. Transfection of the plasmid was performed using Lipofectamine™ 3000 (Thermo Fisher Scientific, L3000001) according to the manufacturer's instructions.

HeLa cells [6] = assay: Co-localization with endosome, lysosome and cardiolipin (NAO) markers; type: cell-based; settings: HeLa cells expressing CellLight early endosomes-GFP, 100 nM 3 hours
Description: Next, to investigate whether mitochondrial damage affects the amount of peptide present in lysosomes, cardiolipin-specific targeting was investigated using NAO in the presence or absence of CCCP.
For microscopic observation, HeLa cells were cultured in glass-bottom dishes (SPL, 200350, Korea). The cells were then treated with peptides for 3 hours and stained with MitoTracker™ (Thermo Fisher Scientific, A1372, USA; 100 nM, 1 hr), nonyl acridine orange (NAO; Thermo Fisher Scientific, A1372; 100 nM, 1 hr), Hoechst 33342 ([…], 20 min), CellLight™ early endosomes-GFP (Thermo Fisher Scientific, C10586; […], 16 hr), and/or LysoTracker™ (Thermo Fisher Scientific, L7525; 50 nM, 30 min). The cells were then rinsed with PBS and HBSS was added thereto. Images of the stained cells were obtained using a microscope (Zeiss LSM 880 and ELYRA PS.1). To generate ultra-high resolution images, a structured illumination process was performed with ZEN Black software. Pearson r values were calculated by using ImageJ software.

HeLa cells [7] = settings: 10 or 30 nM 3 hours, then H2O2 for 1 hour
Description: The membrane potential of mitochondria was measured according to the method described in Experimental Example 7.
(§1) 2×10^4 HeLa cells were seeded in a 96-well plate 24 hours before the experiment. The cells were then stained with MitoSOX™ (Thermo Fisher Scientific, M36008; 5 μM, 10 min) or tetramethylrhodamine ethyl ester (TMRE; Sigma, 87917; 600 nM, 15 min). The cells were washed with PBS, and HBSS was added thereto. Fluorescence signal of the cells was measured with a microplate reader (TECAN) at 37° C. (MitoSox, Ex/Em=510/580 nm; TMRE, Ex/Em=525/575 nm).

HeLa cells [8] = settings: HeLa cells pretreated 3 hours; H2O2, antimycin A, or CCCP
Description: as §1

[9] = SPR binding to inner membrane model on sensor chip
Description: The surface plasmon resonance (SPR) technique was used to determine binding ability of the peptide to liposome. Specifically, an L1 sensor chip was inserted into a Biacore™ T200 SPR system (Cytiva, USA) and then liposome was injected so that the liposome binds to the sensor chip. Subsequently, 1 μM of NBD-CMP3013m peptide was injected to check the signal intensity increased by the binding of liposome and CMP3013.
Two types of model systems mimicking the inner mitochondrial membrane were constructed using POPC and POPE according to the method described in Experimental Example 12, and NBD-labeled CMP3013 monomer (NBD-CMP3013m) and NBD-labeled SS-31 (NBD-SS-31) were used to compare and analyze their cardiolipin binding ability.

[10] = Cardiolipin binding assay, NBD fluorescence with liposomes
Description: To further validate specificity of CMP3013 for cardiolipin-rich membranes identified in Example 9, two model systems mimicking the inner mitochondrial membrane were constructed using POPC (1-palmitoyl-2-oleoyl-sn-glycero-3-phosphocholine) and POPE (1-palmitoyl-2-oleoyl-sn-glycero-3-phosphoethanolamine), and cardiolipin binding assays were performed using an NBD-labeled CMP3013 monomer (NBD-CMP3013m), according to the method described in Experimental Example 12.
For the association experiments, 1 μM of NBD-labeled peptide dissolved in PBS was prepared in a black 96-well plate. Liposome (POPC:POPE=2:1 or POPC:POPE=2:1, containing 10% cardiolipin) was added to the peptide until the desired concentration was achieved. The mixture of NBD-peptide and liposome was mixed well through pipetting, and then fluorescence emission of the sample was monitored (λex=467 nm, λem=536 nm).
For the association experiments depending on cardiolipin ratio, 1 μM of NBD-labeled peptide or C6-NBD dissolved in PBS was prepared in a black 96-well plate. Liposome (POPC:POPE=2:1, containing 0 to 20% cardiolipin) was added to the peptide until the desired concentration (5 μM) was achieved. This mixture was mixed well through pipetting and fluorescence emission of the sample was monitored (λex=467 nm, λem=536 nm).
For dissociation experiments, 1 μM of NBD-labeled peptide dissolved in PBS was prepared in a black 96-well plate. Liposome (POPC:POPE=2:1 or POPC:POPE=2:1, containing 10% cardiolipin) was added to the peptide until the desired concentration (100 μM) was achieved. The mixture of NBD-peptide and liposome was mixed well through pipetting and fluorescence intensity of the mixture was measured (λex=467 nm, λem=536 nm). The unlabeled peptide (acetylated peptide) was then added to the mixture and mixed well through pipetting. Incubation in the dark was performed for 10 minutes, and then changes in fluorescence intensity were monitored. Peptide addition and fluorescence measurement were repeated until the concentration of acetylated peptide reached 40 μM.

HeLa cells [11] = type: cell-based; settings: for level of EC50 value (cell-penetrating ability): comparison of CMP3013, LR10, MPP1a, SS-31
Description: Cell-penetrating ability was evaluated using the fluorescently-labeled versions of the dimeric bundle peptides synthesized in Example 3, and measured as EC50 values according to the method described in Experimental Example 3.
1×10^5 HeLa cells were seeded into a 24-well plate. After 24 hours, the peptide was added to the cells and further incubation was performed for 3 hours. The incubated cells were harvested, washed with PBS, suspended in PBS, and then analyzed by fluorescence-activated cell sorting (FACS; BD Accuri, USA). The cells whose fluorescence intensity exceeds the maximum intensity of untreated cells were classified as fluorescence-positive cells.

HeLa cells [12] = assay: Relative cytotoxicity, number of cells normally attached; settings: 100 nM, 3 hours
Description: The relative cytotoxicity of the dimeric bundle peptides according to the present disclosure was compared and analyzed. For this purpose, 1×10^5 HeLa cells were treated with 100 nM of each peptide for 3 hours, washed three times with PBS, and then resuspended in PBS. After 30 minutes, five random photographs of each sample were taken under a light microscope to measure the number of cells normally attached to the cell culture dish.

With `CC(=O)N[C@@H](CC1CCCCC1)C(=O)N[C@H]1CSSC[C@@H](C(=O)N[C@@H](CCCNC(=N)N)C(N)=O)NC(=O)[C@H](CC2CCCCC2)NC(=O)[C@H](CCCNC(=N)N)NC(=O)[C@H](CCCNC(=N)N)NC(=O)[C@H](CC2CCCCC2)NC(=O)[C@H](CC(C)C)NC(=O)[C@H](CCCNC(=N)N)NC(=O)[C@@H](NC(=O)[C@H](CC2CCCCC2)NC(=O)c2ccc3c(c2)C(=O)OC32c3ccc(N(C)C)cc3Oc3cc(N(C)C)ccc32)CSSC[C@@H](C(=O)N[C@@H](CCCNC(=N)N)C(N)=O)NC(=O)[C@H](CC2CCCCC2)NC(=O)[C@H](CCCNC(=N)N)NC(=O)[C@H](CCCNC(=N)N)NC(=O)[C@H](CC2CCCCC2)NC(=O)[C@H](CC(C)C)NC(=O)[C@H](CCCNC(=N)N)NC1=O` [FL-CMP3013] (HELM PEPTIDE1{[ac].[Cha].C.R.L.[Cha].R.R.[Cha].C.R.[am]}|PEPTIDE2{[CN(C)c1ccc2c(c1)Oc1cc(N(C)C)ccc1C21OC(=O)c2cc(C(=O)[*:2])ccc21].[Cha].C.R.L.[Cha].R.R.[Cha].C.R.[am]}$PEPTIDE1,PEPTIDE2,3:R3-10:R3|PEPTIDE1,PEPTIDE2,10:R3-3:R3$$$V2.0) the “cell survival after CCCP” value (HeLa cells [1]) was “survived even after 4 hours”, the “ROS production inhibiting ability” value (HeLa cells [2]) was “greatest inhibition of ROS production” and the “targeting of damaged mitochondria” value (HeLa cells [3]) was “co-localized more with donut-shaped or bulge-shaped mitochondria”. For the same compound, the ATP production (HeLa cells [4]) was “resumed ATP production”, the “co-localization with Drp1” value (HeLa cells [5]) was “co-localize perfectly with Drp1” and the “co-localization with endosomal marker” value (HeLa cells [6]) was “less than 20%”. For the same compound, the mitochondrial membrane potential (HeLa cells [7]) was “increased by FL-CMP3013 treatment in a concentration-dependent manner” and the ROS production (HeLa cells [8]) was “inhibited ROS production”.

In the case of “XCRLXRRXCR (Ac-[Cha]CRL[Cha]RR[Cha]CR-NH2; cysteine pairing not given here) [CMP3013m, acetyl-capped monomeric peptide, X = Cha]”, the “dissociation from the cardiolipin-containing membrane” value [9] is reported as “did not dissociate from the cardiolipin-containing membrane”, the “greater response unit (RU) for membrane containing 10% cardiolipin versus POPC/POPE membrane alone” value ([9]; 1 μM peptide) is reported as “approximately 50%” and the “binding to pathogenically altered membrane (5 to 10% cardiolipin, 10% DLCL)” value ([10]; POPC:POPE (2:1) liposomes) is reported as “can bind to a cardiolipin-damaged membrane”. The “slower dissociation from CL-containing membrane than from cardiolipin-free membrane” value ([10]; competition assay with unlabeled peptide) was “approximately 10 fold” and the “binding capacity for liposome membranes, CMP3013m versus SS-31” value ([10]; liposomes with cardiolipin or di-lysocardiolipin) was “better binding capacity for all types of membranes”.

For “X(dR)XKX(dR)XK [MPP1a, reference compound]”, the “level of EC50 value (cell-penetrating ability)” value (HeLa cells [11]) was “micromolar level of EC50 value”.

In the case of “NBD-NH-XCRLXRRXCR-C(O)NH2 [NBD-CMP3013m]”, the “faster binding to 10% CL liposome versus POPC/POPE liposome alone” value ([10]; 1 μM NBD-labeled peptide) is reported as “approximately 10 fold” and the “greater final fluorescence intensity with 10% CL liposome versus POPC/POPE liposome alone” value ([10]; 1 μM NBD-labeled peptide) is reported as 2 fold.

For “AcNH-RCRLLRRLRLCR-C(O)NH2 [LR10, peptide included in the L1L, L4L, L5L, and L8L sub-libraries, additional comparison group]”, the “improvement in cell penetration rate as compared with SS-31” value (HeLa cells [11]) was “approximately 100 fold” and the “level of EC50 value (cell-penetrating ability)” value (HeLa cells [11]) was “nanomolar level of EC50 value”.

With `CC(=O)N[C@@H](CC1CCCCC1)C(=O)N[C@H]1CSSC[C@@H](C(=O)N[C@@H](CCCNC(=N)N)C(N)=O)NC(=O)[C@H](CC(C)C)NC(=O)[C@H](CCCNC(=N)N)NC(=O)[C@H](CCCNC(=N)N)NC(=O)[C@H](CC2CCCCC2)NC(=O)[C@H](CC2CCCCC2)NC(=O)[C@H](CCCNC(=N)N)NC(=O)[C@@H](NC(=O)[C@H](CC2CCCCC2)NC(C)=O)CSSC[C@@H](C(=O)N[C@@H](CCCNC(=N)N)C(N)=O)NC(=O)[C@H](CC(C)C)NC(=O)[C@H](CCCNC(=N)N)NC(=O)[C@H](CCCNC(=N)N)NC(=O)[C@H](CC2CCCCC2)NC(=O)[C@H](CC2CCCCC2)NC(=O)[C@H](CCCNC(=N)N)NC1=O` [CMP3011] (HELM PEPTIDE1{[ac].[Cha].C.R.[Cha].[Cha].R.R.L.C.R.[am]}|PEPTIDE2{[ac].[Cha].C.R.[Cha].[Cha].R.R.L.C.R.[am]}$PEPTIDE1,PEPTIDE2,3:R3-10:R3|PEPTIDE1,PEPTIDE2,10:R3-3:R3$$$V2.0) the relative cytotoxicity (HeLa cells [12]) was “relatively highest cytotoxicity”.
